Experimental findings from publication PMC10508264, “Exploring the antioxidant, antimicrobial, cytotoxic and biothermodynamic properties of novel morpholine derivative bioactive Mn(II), Co(II) and Ni(II) complexes – combined experimental and theoretical measurements towards DNA/BSA/SARS-CoV-2 3CL^Pro” (RSC Medicinal Chemistry, 2023) are described below.

The structures appear in SMILES notation.

One assay concerns DNA. In words: DNA cleavage by gel electrophoresis under H2O2. The class given is biochemical. Particulars: H2O2 environment. An excerpt: In a cellular system, DNA base pairs can be broken by a variety of mechanisms, including errors in DNA replication, generation of a heteroduplex during homologous recombination, spontaneous deamination of cytosine, and base pairs broken by mutagens or ionizing radiation, which also lead to improper base pairing and mutations. Also, metal complexes have the capability of recognizing DNA mismatches and may become vital entities for investigation and possibly for clinical applications.[55] Moreover, the cleavage of one or both DNA strands is a typical and essential process for maintaining cell viability: during DNA replication and transcription, topoisomerase enzymes correct topological issues, and various nucleases take part in repair mechanisms and DNA degradation, which is one of the distinguishing features of apoptotic programmed cell death. Similarly, several antitumor drugs have the potential to cleave DNA by inducing apoptosis, which eventually leads to cancer cell death. Conversely, molecules that can interact with DNA's major or minor grooves are known as groove-binding molecules, which disrupt and impair the function of the DNA double helix via various non-covalent interactions. The DNA nuclease properties of all samples were assessed in an H2O2 environment by the gel electrophoresis method. DNA cleavage was monitored during the conversion of supercoiled plasmids into linear and nicked DNA fragments. Also, the observed DNA nuclease efficacy for all complexes (1–3) was compared with the free ligand (HL) and CT-DNA alone. No substantial nuclease activity can be seen in the control (Fig. 1 and S13 ^†) (lane 1; DNA + H2O2) even after a lot of time has passed, and free ligand (HL) (lane 2) was monitored as immobile in an H2O2 environment. […] Consequently, it is commonly acknowledged that ROS plays a dual physiological role in controlling a variety of illnesses as well as cellular homeostasis (self-regulating processes like thermoregulation, blood glucose regulation, calcium/potassium homeostasis, and osmoregulation).[56] […] Additionally, it is widely known that the NADPH oxidase enzyme produces reactive oxygen species as part of its antibacterial effect on phagocytic cells. Nevertheless, these types of enzyme seem to be present in a variety of other cells and may have significant signalling pathway functions. When non-carcinogenic toxicity events occur, ROS has the ability to alter cell function as well as to affect the genesis of cancer at several levels. OH˙ can attack DNA, proteins, and lipids due to its high reactivity among ROS. Also, the hydroxyl radical is a key participant in free-radical-mediated hazardous reactions because of its great reactivity. […]

The next assay deals with BSA (Bos taurus, UniProt P02769). In words: FRET computation, donor (BSA)–acceptor (compound). The class given is binding, bovine. The arrangement: kET (rate of energy transfer): unit not given here. The settings on record: for B (average brightness of complex–BSA system): free BSA 6573.60. An excerpt:
The critical distance between donor and acceptor molecules can be estimated using the FRET approach to assess the binding affinity between BSA and a test substance.[13,33–35]
FRET is a non-destructive spectroscopic method consisting of a process between several electronic excited states of molecules that is dependent on distance (r). FRET can also be employed to distinguish the relative angular orientation and closeness of fluorophores.[82] The process happens when there is a large overlap between the absorption spectrum acceptor (compound/chromophore) and the donor's emission spectrum (BSA/fluorophore) (Fig. S30 ^†). Also, the average distance (r) between the donor and acceptor can be measured in accordance with this theory. Fluorescence is quenched due to energy being transmitted from the excited state of BSA to the substances (HL)/(1–3). As a result of the FRET analysis, the observed r findings were in the range of 2.4127–2.7129 nm (Table 5 and Fig. S30 ^†). […] The following conditions have a major impact on the effectiveness of FRET: (i) the distance (r) should be in the prescribed range of 2–8 nm for energy transfer; (ii) there is a large overlap between the emission spectrum of biomolecules (donors) and the electronic absorption spectrum of acceptors (substances); and (iii) the BSA and compound transition dipoles are oriented correctly. BSA transmits excitation energy to a compound during FRET without emitting a photon from the previous molecule system. Energy transfer (E) results were acquired from eqn (18) (Table 5). K^2 is associated with the geometry of the BSA and complex of the dipoles, the value for random orientation (K2 = 2/3) as in a fluid solution. Basically, the K^2 values were found in the range from 0 to 4, and energy can be transferred from BSA to the compound when electrons are transferred between the two molecules. For parallel transition dipoles that are aligned, K^2 is equal to 4, which denotes maximal energy transfer; and when the orientation of the dipoles is perpendicular to one another, K^2 is equal to 0, which denotes very weak energy transfer. When the relative orientation of the dipoles is random, K^2 is equal to 2/3. Eqn (20) is helpful for measuring the J values for overlap of the emission spectrum of BSA with the electronic absorption spectrum of the compound. The molar absorption coefficient (εA) and fluorescence emission intensity were both measured on the unit area scale of wavenumbers. It is imperative that J, after being normalized, is independent of the real size of εA. The following variables for the complex–BSA interaction are determined using eqn (18)–(23), n = 1.36, Φ = 0.15, E = 0.3462–0.5692, J = 0.8215–1.0886 × 10^−14 cm^3 L mol^−1, R0 = 2.4400–2.5573 nm, r = 2.4127–2.7129 nm, kET = 5.2941–13.2142 J s^−1 and B = 5339.79–6007.23 mol^−1 cm^−1 (Table 5). The observed values of R0 and r between BSA Trp213 and the interacting compound were substantially smaller than 8 nm and their relationships are found in the following sequence: 0.5R0 (1.2200–1.2786) < r (2.4127–2.7128) < 1.5R0 (3.6601–3.8358). […] Also, τ is denoted as the lifetime of fluorescence emission of the biomolecule and is described as the inverse of the entire degradation rate τ = 1/(kr + knr). The radiative lifetime of the fluorophore is represented as τ0 = 1/kr. The values of τ and Φ are associated with eqn (21) (Table 5). Quenching occurs when the ground or excited states of BSA come into contact with a compound in the solution. The intensity of fluorescence emission is also decreasing. Quenching is divided into the two main categories of dynamic and static quenching. While BSA is in an excited state, it binds with the substance during a dynamic or collisional quenching mechanism, and is then deactivated to the ground state without the emission of radiation. Therefore, the concentration of the quenching compounds affects dynamic quenching. The τ and Φ values for BSA diminish with an increase in the compound concentration. […]

Regarding `[Mn+2].[O-]c1ccccc1N=Cc1ccc(N2CCOCC2)cc1.[O-]c1ccccc1N=Cc1ccc(N2CCOCC2)cc1.c1ccc(-c2ccccn2)nc1` [(1)], in the assay with DNA, the DNA cleavage entry is “no considerable cleavage efficiency”. At BSA, the “E (efficiency of energy transfer)” value is 0.4462, the “J (spectral overlap integral)” value is listed as 1.0886 × 10^−14 (LM^−1 cm^3), the “R0 (Förster radius)” value came out at 2.5573 nm and the “kET (rate of energy transfer)” value is on record as 8.0556. Also, on BSA, the “r (donor–acceptor distance)” value is given as 2.6511 nm and the “B (average brightness of complex–BSA system)” value was determined as 6007.23 M⁻¹ cm⁻¹.

Turning to `[Co+2].[O-]c1ccccc1N=Cc1ccc(N2CCOCC2)cc1.[O-]c1ccccc1N=Cc1ccc(N2CCOCC2)cc1.c1ccc(-c2ccccn2)nc1` [(2)], the DNA cleavage entry in the assay with DNA is “complete DNA cleavage”. At BSA, the “E (efficiency of energy transfer)” value is 0.5000, the “J (spectral overlap integral)” value was 1.0201 × 10^−14 (LM^−1 cm^3), the “R0 (Förster radius)” value stood at 2.5297 nm and the “kET (rate of energy transfer)” value was 10.000. In addition, on BSA, the “r (donor–acceptor distance)” value was 2.5297 nm and the “B (average brightness of complex–BSA system)” value came to 5835.99 M⁻¹ cm⁻¹.

In the case of `[Ni+2].[O-]c1ccccc1N=Cc1ccc(N2CCOCC2)cc1.[O-]c1ccccc1N=Cc1ccc(N2CCOCC2)cc1.c1ccc(-c2ccccn2)nc1` [(3)], the DNA cleavage result in the assay with DNA was “partial DNA cleavage”. At BSA, the “E (efficiency of energy transfer)” value is listed as 0.5692, the “J (spectral overlap integral)” value is 1.0145 × 10^−14 (LM^−1 cm^3), the “R0 (Förster radius)” value came to 2.5274 nm and the “kET (rate of energy transfer)” value turned out to be 13.2142. On BSA, the “r (donor–acceptor distance)” value stood at 2.4127 nm and the “B (average brightness of complex–BSA system)” value was found to be 5822.04 M⁻¹ cm⁻¹.

`Oc1ccccc1N=Cc1ccc(N2CCOCC2)cc1` [(HL), 2-(4-morpholinobenzylideneamino)phenol]: the DNA cleavage result in the assay with DNA is reported as “immobile”. For the same compound, on BSA, the “E (efficiency of energy transfer)” value is given as 0.3462, the “J (spectral overlap integral)” value was 0.8215 × 10^−14 (LM^−1 cm^3), the “R0 (Förster radius)” value is 2.4400 nm and the “kET (rate of energy transfer)” value came out at 5.2941. Also, at BSA, the “r (donor–acceptor distance)” value was found to be 2.7129 nm and the “B (average brightness of complex–BSA system)” value turned out to be 5339.79 M⁻¹ cm⁻¹.
